Common to all, as to format: cell-based, human
Data set [1] deals with BPH-1 cells. Description: Cell viability by MTT assay in BPH-1 cells. Conditions: BPH-1 cells, 48 h; for cell viability (number of viable cells): MTT. The procedure:
(§1) Human benign prostate hyperplasia epithelial cells (BPH-1) were obtained from Dr. Simon W. Hayward (Vanderbilt University, Nashville, Tenn.) and malignant androgen-independent prostate cancer epithelial cells (PC-3) were obtained from American Type Tissue Collection (Manassas, Va.). Cells were grown and maintained in RPMI 1640 with glutamine (Mediatech, Inc., Herndon, Va.) supplemented with 5% (BPH-1) or 10% (PC-3) fetal bovine serum (Hyclone, Logan, Utah) and 1% penicillin-streptomycin (Mediatech, Inc., Herndon, Va.). All cell types were maintained in 5% CO2 at 37° C.
(§2) XN was isolated from hop cones as described previously (Stevens et al., J. Chromatogr. A 832 (1999) 97-107). Its oxidation product, xanthoaurenol (XAL), was prepared from xanthohumol (XN) by treatment with peroxynitrite. The structure of XAL was determined by mass spectrometry, NMR spectroscopy and X-ray diffraction analysis. Prenylflavonoids were dissolved in 100% methanol and were added to the culture medium at a final concentration of 2.5-200 μmol/L, depending on desired treatment. All treatments were done at approximately 50-70% confluency. As a control, methanol was added to culture medium equivalent to hop treatment.
(§3) Cells were seeded into 24-well plates (50,000 cells per well). After 24 h, cells were treated with either XN or XAL as described above. Cell viability was evaluated by MTT assay as described by Mossmann et al., J. Immunol. Methods 65 (1983) 55-63. Production of formazan product was detected in a Molecular Devices SpectraMax (Molecular Devices, Sunnyvale, Calif.) at 580 nm.
Background: Formazan colour is commonly taken as a measure of viable cells.

Data set [2] deals with PC-3 cells. Put plainly: Cell viability by MTT assay in PC-3 cells. Conditions: PC3 cells, 48 h; for cell viability (number of viable cells): MTT. As for the experimental part: as §1, §2, §3
The subject of data set [3] is BPH-1 cells. Description: Multicaspase assay (SR-VAD-FMK/7AAD flow cytometry) in BPH-1 cells. Conditions: 48 h. As for the experimental part: (§4) FIG. 3 sets forth data relating to xanthohumol and xanthoaurenol induction of caspase activity in BPH-1 and PC-3 cells. Cells were treated with XN or XAL for 48 h. Induction of apoptosis was measured using a multi-caspase assay. SR-VAD-FMK covalently binds caspases and positively stained cells were assessed by flow cytometry as a measure of caspase activation. 7-Amino-actinomycin D (7AAD), a nucleotide stain that only stains cells when membrane integrity is compromised, was used to differentiate between early and late apoptotic cells. SR-VAD-FMK(+) 7AAD(−) cells are undergoing early-mid apoptosis, […] late stage apoptotic cells. Values are mean±SD, n=3. *P<0.05, **P<0.01.
(§5) At various times after treatment with XN or XAL, adherent and floating cells were collected for analysis. Apoptosis was assessed using a flow cytometry based nexin and multicaspase assay kits (Guava Technologies, Burlingame, Calif.). The nexin assay is based on measurement of externalization of phosphatidyl serine, a common characteristic of cells undergoing apoptosis. The multicaspase assay is based on measurement of caspase enzymes activated during apoptosis. Cells were trypsinized, washed in D-PBS and stained with Annexin V, sulforhodamine-valyl-alanyl-aspartyl-fluoromethyl-ketone (SR-VAD-FMK), and 7-amino-actinomycin D (7AAD) according to the manufactures instructions. Cell populations were quantified using Guava personal cytometer (Guava Technologies, Burlingame, Calif.).
(In flow cytometry, cells or beads pass a laser one at a time.)

For data set [4], the system named is PC-3 cells. Put plainly: Multicaspase assay (SR-VAD-FMK/7AAD flow cytometry) in PC-3 cells. Conditions: 48 h. The procedure: as §4
At various times after treatment with XN or XAL, adherent and floating cells were collected for analysis. Apoptosis was assessed using a flow cytometry based nexin and multicaspase assay kits (Guava Technologies, Burlingame, Calif.). The nexin assay is based on measurement of externalization of phosphatidyl serine, a common characteristic of cells undergoing apoptosis. The multicaspase assay is based on measurement of caspase enzymes activated during apoptosis. […] Cell populations were quantified using Guava personal cytometer (Guava Technologies, Burlingame, Calif.).

In data set [5] the test system is BPH-1 cells. Description: Annexin V (nexin) apoptosis assay in BPH-1 cells. Conditions: 20 μM. As for the experimental part:
FIG. 4 sets forth data relating to xanthohumol and xanthoaurenol induction of apoptosis in BPH-1 and PC-3 cells. Cells were treated with XN and XAL and apoptosis was detected using the Annexin V assay. Externalization of phosphatidyl serine, an early marker of apoptosis was detected by flow cytometry after staining with Annexin V-PE and 7AAD. Annexin V(+) 7AAD(−) cells are undergoing early apoptosis, and Annexin V(+) 7AAD(+) are undergoing late apoptosis. Values are mean±SD, n=3. *P<0.05, **P<0.01.
as §5

Data set [6] deals with BPH-1 cells. Description: Cell cycle analysis (propidium iodide flow cytometry) in BPH-1 cells. Conditions: for cell cycle modification: 10 and 20 μM. The procedure:
At various time points after treatment with XN and XAL, adherent and floating cells were collected and fixed in 70% ethanol at one million cells per aliqout. Samples were centrifuged at 500×g, washed with PBS, and resuspended in cellular DNA staining solution containing […] propidium iodide (Sigma, St Louis, Mo.) and 100 μg/mL RNase (Sigma, St Louis, Mo.) in PBS. After 30-min incubation at room temperature, cell populations were quantified using Guava personal cytometer. Data analysis was performed using Multi Cycle software (Phoenix Flow Systems, San Diego, Calif.).
In Table 1, Cells were treated with 0, 10 or 20 μM XN or XAL, as indicated, and harvested after 48 h. Attached and floating cells were fixed in 70% ethanol and stained with propidium iodide, and cell cycle kinetics were examined using the Guava PCA, followed by data analysis with Multi-Cycle software.

Data set [7] has as its system NFκB. Description: NFκB activation, transcription factor binding ELISA, nuclear extracts of BPH-1 cells. Conditions: 20 μM, 48 h. The procedure:
(§6) FIG. 5 sets forth data relating to xanthohumol and xanthoaurenol inhibit NFκB activation in nuclear extracts of BPH-1 cells. Cells were treated with XN or XAL for 48 h. (A) Cells were harvested by scraping and then subjected to nuclear extraction. NFκB activation was determined using transcription factor binding ELISA as described in Section 2. Equal protein loading was confirmed using β-actin. Results are representative of two or more separate experiments. (B) BPH-1 cells were treated with XN or XAL for 48 h and detection of p65 nuclear protein was performed with immunoblotting methods. (C) No inhibition of NFκB activation in treated PC3 cells. Results are mean±SD, n=3. **P<0.01.
(§7) NFκB Activity was measured using Trans AM NFκB p65/p50 Transcription Factor Assay Kit (Active Motif, CA). Cytosolic and nuclear extracts were prepared from cells by using Nuclear Extraction Kit (Active Motif, Carlsbad, Calif.). Nuclear extract samples (10 μg) were added to a 96 well plate with immobilized oligonucleotide containing the NFκB consensus site (5′-GGGACTTTCC-3′). Sample wells were incubated with primary antibody specific for NFκB, followed by incubation with an HRP-conjugated secondary antibody, followed by quantification at OD 580 using a plate reader (Molecular Devices, Sunnyvale, Calif.).
In general terms: In an ELISA, binding on a coated surface is turned into a signal by an enzyme label.

Data set [8] deals with NFκB. Put plainly: NFκB activation, transcription factor binding ELISA, PC3 cells. As for the experimental part:
as §6, §7

Data set [9] concerns pro-apoptotic proteins Bax and p53 and anti-apoptotic protein Bcl-2. Put plainly: Western blot of Bax, p53 and Bcl-2 in whole cell lysates of BPH-1 cells. Conditions: for expression of pro-apoptotic protein Bax / expression of pro-apoptotic protein p53: 10 and 20 μM; for expression of pro-apoptotic protein Bax / expression of pro-apoptotic protein p53 / expression of anti-apoptotic protein Bcl-2: 48 h. As for the experimental part: FIG. 6 sets forth data relating to xanthohumol and xanthoaurenol induce expression of proapoptotic proteins p53 and bax, with down-regulation of antiapoptotic proteins bcl-2 in BPH-1 cells. Western blot of pro-apoptotic proteins Bax and p53 and anti-apoptotic protein Bcl-2 were performed from whole cell lysates of BPH-1 cells treated with XN and XAL for 48 h. Blots are representative of three individual experiments.
Cells were lysed in RIPA buffer and whole cell lysate protein concentrations were determined using a detergent-compatible protein assay (BioRad, CA). Proteins (15-35 μg) were separated by SDS-PAGE under standard conditions and were transferred to a nitrocellulose membrane (Biorad, CA) at 300 mA for 2 h. Antibody dilutions were as follows: Bax (BD Pharmingen, 1:500 dilution), Bcl-2 (Santa Cruz Biotechnology, 1:1000 dilution), p53 (Santa Cruz Biotechnology, 1:1000 dilution), NFκB p65 (Santa Cruz Biotechnology, 1:1000 dilution), actin (Sigma, 1:5000 dilution). Actin was used to confirm equal protein loading between samples. Protein was detected using chemiluminescence reagents (Pierce, Rockford, Ill.) with image analysis on Alpha Innotech photodocumentation system (Alpha Innotech, Hayward, Calif.).

Data set [10] concerns NFκB p65. Description: Immunoblot of p65 nuclear protein in BPH-1 cells. Conditions: 48 h. The procedure: as §6
Cells were lysed in RIPA buffer and whole cell lysate protein concentrations were determined using a detergent-compatible protein assay (BioRad, CA). Proteins (15-35 μg) were separated by SDS-PAGE under standard conditions and were transferred to a nitrocellulose membrane (Biorad, CA) at 300 mA for 2 h. […] Protein was detected using chemiluminescence reagents (Pierce, Rockford, Ill.) with image analysis on Alpha Innotech photodocumentation system (Alpha Innotech, Hayward, Calif.).

Data set [11] is described as follows: Cell viability by MTT assay in BPH-1 cells. Conditions: human. The procedure:
as §1, §2, §3

Data set [12] can be described thus: Cell viability by MTT assay in PC-3 cells. Conditions: human. The procedure:
as §1, §2, §3

On to `COc1cc(O)c(CC=C(C)C)c2c1C(=O)/C(=C/Oc1ccc(O)cc1)O2` [XAL, xanthoaurenol], for which the “cell viability (number of viable cells)” value in [1] is “dose-dependent decrease in number of viable”. Also, in [1] (concentration of XAL not given), the “viability decreased to” value was found to be 81%. The “cell viability (number of viable cells)” value in [2] is “dose-dependent decrease in number of viable”. Moreover, the “viability decreased to” value in [2] (concentration of XAL not given) was 55%. In addition, in [3], the “SR-VAD-FMK(+) 7AAD(+) cells (late apoptosis)” value was “increase” and the “SR-VAD-FMK(+) 7AAD(−) cells (caspase activation, early to mid stage apoptosis)” value is reported as “increase”. The “SR-VAD-FMK stained cells (caspase activation)” value in data set [4] is on record as “increase only in late apoptotic SR-VAD-FMK(+) 7AAD(+) cells”. Further, in data set [5], the “Annexin V(+) 7AAD(+) cells (late apoptosis)” value was “increase” and the “Annexin V(+) 7AAD(−) cells (early apoptosis)” value is “increase”. In addition, the “G1, percentage of cells in phase” value in data set [6] (20 μM, 48 h, mean ± SE, n=3) stood at 45.730 ± 1.376%. In addition, the cell cycle modification entry in [6] is recorded as “clear accumulation in the S phase”. The “decrease in NFκB activity” value in data set [7] is on record as 42%. For the same molecule, the NFκB activation result in data set [8] was “No inhibition”. Also, in [9], the “expression of pro-apoptotic protein Bax” value was “Increase”, the “expression of pro-apoptotic protein p53” value is recorded as “Increase” and the “expression of anti-apoptotic protein Bcl-2” value was “decreased expression”. Moreover, the “NFκB p65 protein levels in the nuclear fraction” value in data set [10] is on record as “increased”.

`COc1cc(O)c(CC=C(C)C)c(O)c1C(=O)/C=C/c1ccc(O)cc1` [XN, xanthohumol]: in data set [11], the cytotoxicity at 48 h, 20 μM was 80%. Further, the “cell viability (number of viable cells)” value in data set [1] is “dose-dependent decrease in number of viable”. In [12], this molecule yielded a cytotoxicity at 48 h, 20 μM of 43%. Further, in data set [2], the “cell viability (number of viable cells)” value is recorded as “dose-dependent decrease in number of viable”. In data set [3], the “SR-VAD-FMK(+) 7AAD(+) cells (late apoptosis)” value is “increase” and the “SR-VAD-FMK(+) 7AAD(−) cells (caspase activation, early to mid stage apoptosis)” value is recorded as “increase”. Also, the “SR-VAD-FMK stained cells (caspase activation)” value in [4] is “increase only in late apoptotic SR-VAD-FMK(+) 7AAD(+) cells”. In data set [5], the “Annexin V(+) 7AAD(+) cells (late apoptosis)” value is reported as “increase” and the “Annexin V(+) 7AAD(−) cells (early apoptosis)” value is “increase”. The cell cycle modification result in [6] is “clear accumulation in the S phase”. The “decrease in NFκB activity” value in data set [7] worked out at 42%. For the same molecule, the NFκB activation result in data set [8] is “No inhibition”. For the same molecule, in data set [9], the “increase in expression of Bax and p53 compared with XAL” value was “larger increase in expression of Bax and p53 than did treatment with XAL”; the “expression of pro-apoptotic protein Bax” value is on record as “Increase”; the “expression of pro-apoptotic protein p53” value is listed as “Increase”; the “expression of anti-apoptotic protein Bcl-2” value was “decreased expression”. In data set [10], the “NFκB p65 protein levels in the nuclear fraction” value is on record as “increased”.

For the molecule `O=C(O[C@@H]1Cc2c(O)cc(O)cc2O[C@@H]1c1cc(O)c(O)c(O)c1)c1cc(O)c(O)c(O)c1` [epigallocatechin gallate, reference compound], the “cell viability (number of viable cells)” value in data set [1] was “did not significantly decrease cell viability”.
